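Growth conditions: 96-well plates. Treatment: test compound, 48 hours, 5 concentrations. Analysis: linear interpolation between bracketing concentrations; unreached endpoints set to highest concentration. GI50: concentration for 50% inhibition of growth.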 Activity calls are given as the source filed them. Rule as the data show it: active = GI50 up to about 1.1 µM and inactive = higher.
Legend:
Assay in all cases: DTP human tumour cell line panel, 48 h
[1] = tested on: SN12C
[2] = tested on: SK-MEL-28
[3] = tested on: OVCAR-8
[4] = tested on: SNB-19
[5] = tested on: MOLT-4
[6] = tested on: CAKI-1
[7] = tested on: HOP-62
[8] = tested on: UACC-257
[9] = tested on: RXF 631
[10] = tested on: CCRF-CEM
[11] = tested on: IGROV-1
[12] = tested on: COLO 205
[13] = tested on: OVCAR-4
[14] = tested on: HCT-116
[15] = tested on: DMS-273
[16] = tested on: HOP-18
[17] = tested on: KM-20L2
[18] = tested on: A549
[19] = tested on: NCI-H23
[20] = tested on: SF-539
[21] = tested on: HT-29
[22] = tested on: U-251
[23] = tested on: UO-31
[24] = tested on: KM12
[25] = tested on: UACC-62
[26] = tested on: K562
[27] = tested on: OVCAR-3
[28] = tested on: NCI-H460
[29] = tested on: SF-295
[30] = tested on: 786-0
[31] = tested on: ACHN
[32] = tested on: XF498
[33] = tested on: SNB-75
[34] = tested on: HOP-92
[35] = tested on: SK-OV-3
[36] = tested on: LXFL 529
[37] = tested on: SR
[38] = tested on: EKVX
[39] = tested on: HCT-15
[40] = tested on: A498
[41] = tested on: DMS-114
[42] = tested on: DLD-1
[43] = tested on: RXF 393
[44] = tested on: SW-620
[45] = tested on: RPMI-8226
[46] = tested on: HCC 2998
[47] = tested on: SK-MEL-2
[48] = tested on: M19-MEL
[49] = tested on: HL-60
[50] = tested on: SNB-78
[51] = tested on: SF-268
[52] = tested on: SK-MEL-5
[53] = tested on: NCI-H226
[54] = tested on: M14
[55] = tested on: TK-10
[56] = tested on: Malme-3M
[57] = tested on: NCI-H522

Measured: GI50

COc1ccc([C@@H]2OC(=O)C3C2C(=O)O[C@H]3c2ccc(OC)cc2)cc1 (stereo partly specified)
active: [34] 0.209 µM
> 100 µM: [39]
inactive: [1] > 100 µM | [2] > 100 µM | [3] > 100 µM | [4] > 100 µM | [5] > 100 µM | [6] > 100 µM | [7] > 100 µM | [8] > 100 µM | [9] > 100 µM | [10] > 100 µM | [11] > 100 µM | [12] > 100 µM | [13] > 100 µM | [14] > 100 µM | [15] > 100 µM | [16] > 100 µM | [17] > 100 µM | [18] > 100 µM | [19] > 100 µM | [20] > 100 µM | [21] > 100 µM | [22] > 100 µM | [23] > 100 µM | [24] > 100 µM | [25] > 100 µM | [26] > 100 µM | [27] > 100 µM | [28] > 100 µM | [29] > 100 µM | [30] > 100 µM | [31] > 100 µM | [32] > 100 µM | [33] > 100 µM | [35] > 100 µM | [36] > 100 µM | [37] > 100 µM | [38] > 100 µM | [40] > 100 µM | [41] > 100 µM | [42] > 100 µM | [43] 76.4 µM | [44] > 100 µM | [45] > 100 µM | [46] > 100 µM | [47] > 100 µM | [48] > 100 µM | [49] > 100 µM | [50] > 100 µM

N#CC1(C=O)c2ccccc2C=CN1C(=O)c1ccccc1 (stereo unspecified)
inactive: [1] 50 µM | [2] > 100 µM | [3] 41.8 µM | [4] 58.3 µM | [5] 18.7 µM | [6] 20.5 µM | [8] 29.8 µM | [9] 56.5 µM | [10] 17.6 µM | [11] 26.9 µM | [51] 70.3 µM | [12] 37.3 µM | [52] 11.4 µM | [13] 34.9 µM | [14] 38.6 µM | [15] 49.2 µM | [16] 41.4 µM | [53] 61.9 µM | [17] 43.6 µM | [18] 76.2 µM | [19] 41.7 µM | [21] 38.2 µM | [22] 29.6 µM | [23] 33.3 µM | [24] 19.2 µM | [25] 52.5 µM | [26] 29.6 µM | [27] 16.7 µM | [28] 73.6 µM | [30] 31.7 µM | [31] 27.4 µM | [54] 26.8 µM | [32] 22 µM | [33] 15.1 µM | [55] 63.5 µM | [34] 23.4 µM | [56] 30.6 µM | [36] 33.3 µM | [37] 18.5 µM | [38] 29.7 µM | [40] 26.4 µM | [41] 19.8 µM | [43] 20.5 µM | [44] 4.3 µM | [57] 27.9 µM | [46] 35.8 µM | [47] 61.8 µM | [48] 33.7 µM | [49] 17.7 µM | [50] 78.7 µM
40.7 µM: [39]
